# Assay results reported in patent US6017919A, “Compounds and pharmaceutical use thereof” (Japan Tobacco Inc., priority 1996, dated 2000).
# Counter-ions that a name gives are not always drawn. Like-named read-outs stand apart in the source and are kept apart here.
# Columns and labels:
# [1] = tested on: Carageenan-induced paw edema; assay: Carageenan-induced paw edema model; assay type: in vivo, female ddy mice; details: Mus musculus; po, mice, 1 h before carageenan; paw volume 3 h later
# Method: [II] Carageenan-induced paw edema model (in vivo)
# Female ddy mice (6-8 weeks old) were used. […] One hour after the administration, 50 μL of 1% carageenan dissolved in physiological saline was intradermally injected into the right foot pad. Three hours later, the volume of the right paw was measured and compared with that measured before the carageenan injection.
# (§1) In both [II] and [III], the test compounds were dissolved in DMSO and used upon dilution with olive oil (final concentration of DMSO 1%).
# [2] = tested on: Sheep red blood cell-induced delayed type hypersensitivity; assay: Sheep red blood cell (SRBC)-induced delayed type hypersensitivity (DTH) model; assay type: in vivo, female ddy mice; details: Mus musculus, Erythrocyte; po, mice, 1 h before SRBC challenge; paw volume 24 h after induction
# Method: [III] Sheep red blood cell (SRBC)-induced delayed type hypersensitivity (DTH) model (in vivo)
# Female ddy mice (6-8 weeks old) were used. On day 1, SRBC 10^7 cells were intradermally injected into the left foot pad of the mice (40 μl/foot) to immunize the mice. Five days later, the test compounds dissolved in olive oil were orally administered at 10 ml/kg. One hour later, SRBC 10^8 cells were intradermally injected into the right foot pad to induce the response. Twenty-four hours after the induction, the volume of the both paws was measured, and edema ratio was calculated by […].
# as §1
# [3] = target: T1, cannabinoid peripheral type (CB2) receptor (Rattus norvegicus, UniProt Q9QZN9); assay: Binding assay, cannabinoid peripheral type receptor (CB2), rat spleen cells, [3H]Win55212-2; details: for C/S: ratio of Ki central receptor (C) to Ki peripheral receptor (S)
# T1 construct: rat cerebellar membrane fraction and spleen cells were respectively used; from tissue; host or cells: rat spleen cells (male SD rats, 7-9 weeks old)
# T1 sequence (Q9QZN9 1-360): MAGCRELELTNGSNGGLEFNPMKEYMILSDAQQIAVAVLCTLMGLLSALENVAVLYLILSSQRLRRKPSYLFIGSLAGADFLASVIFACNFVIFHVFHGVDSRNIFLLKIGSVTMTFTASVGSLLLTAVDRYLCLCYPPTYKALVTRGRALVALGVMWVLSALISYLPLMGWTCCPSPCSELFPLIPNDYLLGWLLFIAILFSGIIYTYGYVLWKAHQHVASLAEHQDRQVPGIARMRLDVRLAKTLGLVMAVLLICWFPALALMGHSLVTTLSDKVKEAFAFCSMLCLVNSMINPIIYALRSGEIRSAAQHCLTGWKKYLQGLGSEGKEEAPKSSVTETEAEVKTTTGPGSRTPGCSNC
# Method: (§2) [I] Binding Assay (in vitro)
# (§3) As the sample rich in cannabinoid central type (CB1) and peripheral type (CB2) receptors, rat cerebellar membrane fraction and spleen cells were respectively used (male SD rats, 7-9 weeks old). A sample (cerebellar membrane fraction: 50 μg/ml or spleen cells: 1×10^7 cells/ml), labeled ligand ([^3 H]Win55212-2, 2 nM) and unlabeled Win55212-2 or a test compound were plated in round bottom 24 well plates, and incubated at 30° C. for 90 min in the case of cerebellar membrane fraction, and at 4° C. for 360 min in the case of spleen cells. As the assay buffer, 50 mM Tris solution containing 0.2% BSA was used for cerebellar membrane fraction, and 50 mM Tris-HBSS containing 0.2% BSA was used for spleen cells. After incubation, the samples were filtrated through a filter (Packard, Unifilter 24 GF/B) and dried. A scintillation solution (Packard, Microsint-20) was added, and the radioactivity of the samples was determined (Packard, Top count A9912V). The non-specific binding was determined by adding an excess Win55212-2 (1 μM), and specific binding was calculated by subtracting non-specific binding from the total binding obtained by adding the labeled ligand alone. The test compounds were dissolved in DMSO to the final concentration of DMSO of 0.1%. IC50 was determined from the proportion of the specifically-bound test compounds, and the Ki value of the test compounds was calculated from IC50 and Kd value of [^3 H]Win55212-2.
# [4] = target: T2, cannabinoid central type (CB1) receptor (Rattus norvegicus, UniProt P20272); assay: Binding assay, cannabinoid central type receptor (CB1), rat cerebellar membrane fraction, [3H]Win55212-2
# T2 construct: rat cerebellar membrane fraction and spleen cells were respectively used; from tissue; host or cells: rat cerebellar membrane fraction (male SD rats, 7-9 weeks old)
# Method: as §2, §3
# [5] = rat cerebellar membrane fraction, [3H]Win55212-2 2 nM, 30° C. 90 min, read-out: Ki value, Central receptor (C)
# [6] = rat spleen cells, [3H]Win55212-2 2 nM, 4° C. 360 min, read-out: Ki value, Peripheral receptor (S)
# T2 sequence (P20272 whole entry): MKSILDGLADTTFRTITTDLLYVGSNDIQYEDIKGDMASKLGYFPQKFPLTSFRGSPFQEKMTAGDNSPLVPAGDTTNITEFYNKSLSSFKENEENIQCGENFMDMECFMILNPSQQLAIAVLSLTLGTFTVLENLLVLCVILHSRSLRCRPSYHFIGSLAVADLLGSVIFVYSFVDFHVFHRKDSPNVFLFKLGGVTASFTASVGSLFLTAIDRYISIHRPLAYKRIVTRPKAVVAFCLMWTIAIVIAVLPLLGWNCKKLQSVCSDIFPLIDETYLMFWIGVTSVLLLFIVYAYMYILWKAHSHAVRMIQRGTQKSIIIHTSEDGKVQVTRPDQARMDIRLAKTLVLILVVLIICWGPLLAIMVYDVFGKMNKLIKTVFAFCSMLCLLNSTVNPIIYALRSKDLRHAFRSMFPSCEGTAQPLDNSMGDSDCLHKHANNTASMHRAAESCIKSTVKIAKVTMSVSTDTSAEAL
SMILES,ED50 [1] [mg/kg],ED50 [2] [mg/kg],C/S [3],"Ki [4, 5] [nM]","Ki [3, 6] [nM]",Ki [4] [nM],"Ki ([4]; read-out: Ki value, Central receptor (C), rat cerebellar membrane fraction, [3H]Win55212-2 2 nM, 30° C. 90 min) [nM]",Ki [3] [nM]
CCCCCOc1cc(C(=O)NCCc2ccncc2)ccc1OC [Example 2-16],1.1,1.95,> 59,> 4300,,,,
"CCCCCOc1cc(C(=O)NCCc2ccc(O)cc2)ccc1OC [Example 2-1, N-[2-(4-hydroxyphenyl)ethyl]-(4-methoxy-3-pentyloxy)benzamide]",0.04,0.14,560,1400,,,,
CCCCCOc1cc(/C=C/C(=O)NCCc2ccc(O)cc2)ccc1OCC [Example 1-2],> 1,0.48,222,,1.8,400,,
"CCCCCNc1c(OC)ccc2c1CN(CCc1ccc(O)cc1)C2=O [Example 7-31, 2-[2-(4-hydroxyphenyl)ethyl]-5-methoxy-4-pentylamino-2,3-dihydroindol-1-one]",0.012,0.08,125,,,11,,
CCCCOc1cc(/C=C/C(=O)NCCc2ccc(O)cc2)ccc1OC [Example 1-4],0.55,0.71,125,,7.7,960,,
"CCCCCOc1c(OC)ccc2c1CCN(CCc1ccc(O)cc1)C2=O [Example 7-24, 2-[2-(4-hydroxyphenyl)ethyl]-6-methoxy-5-pentyloxy-3,4dihydro-2H-isoquinolin-1-one]",0.028,0.027,> 1389,,,> 2500,,
CCCCCNc1cc(C(=O)NCCc2ccc(O)cc2)ccc1OC [Example 2-6],0.3,0.72,455,,1.1,,500,
CCCCCOc1cc(/C=C/C(=O)NCCc2ccc(O)cc2)ccc1OC [Example 1-1],1,1.52,48,,,230,,
CCCCCOc1cc(/C=C/C(=O)N[C@@H](Cc2ccc(O)cc2)C(=O)OC)ccc1OC [Example 1-22],0.14,0.77,343,,1.4,480,,
"CCCCCOc1ccc(C(=O)NCCc2ccc(N)cc2)cc1SCCCCC [Example 2-52, N-[2-(4-aminophenyl)ethyl]4-pentyloxy-3-pentylthiobenzamide]",1.85,0.58,> 2300,,,> 4300,,
CCCCCOc1cc(C(=O)NCCc2cccc(O)c2)ccc1OC [Example 2-13],3.2,5.6,849,,6.6,5600,,
"CCCCCOc1c(OC)ccc2c1CN(CCc1ccc(N)cc1)C2=O [Example 7-37, 2-[2-(4-aminophenyl)ethyl]-5-methoxy-4-pentyloxy-2,3-dihydroisoindol-1-one]",0.49,0.058,93,1300,,,,
CCCCCOc1c(OC)ccc2c(=O)n(CCc3ccc(O)cc3)ccc12 [Example 7-19-1],0.092,0.033,54,200,,,,
CCCCCOc1c(OC)ccc2c(=O)n(CCc3ccncc3)ccc12 [Example 7-20],0.195,0.084,48,400,,,,
"CCCCCOc1ccc2c(c1OCCCCC)CN(CCc1ccc(N)cc1)C2=O [Example 7-34, 2-[2-(4-aminophenyl)ethyl]-4,5-bispentyloxy-2,3-dihydroisoindol-1-one]",0.29,0.012,3000,,,330,,
CCCCCOc1cc(C(=O)NC2CCc3cc(O)c(O)cc3C2)ccc1OC (stereo not drawn) [Example 2-26],> 10,3.75,> 139,,,> 2500,,
"CCCCCSc1cc(/C=C/C(=O)NCCc2ccc(O)cc2)ccc1OC [Example 1-34, N-[2-(4-hydroxyphenyl)ethyl]-3-(4-methoxy-3-pentylthiophenyl)acrylamide]",0.59,1.95,845,,,930,,
CCCCCOc1cc(C(=O)NCCc2ccc(O)cc2)ccc1OCC [Example 2-2],0.51,0.9,1000,,1.1,1100,,
CCCCCCOc1cc(C(=O)NCCc2ccc(O)cc2)ccc1OC [Example 2-8],0.73,1.45,270,,3.7,1000,,
"CCCCCOc1c(OC)ccc2c1C(=O)N(CCc1ccc(O)cc1)C2=O [Example 7-4, 2-[2-(4-hydroxyphenyl)ethyl]-5-methoxy-4-pentyloxyisoindole-1,3-dione]",1.6,1.6,137,1000,,,,
"CCCCCOc1c(OC)ccc2c(=O)n(CCc3ccc(N)cc3)c(=O)[nH]c12 [Example 7-40, 3-[2-(4-aminophenyl)ethyl]-7-methoxy-8-pentyloxy-1H-quinazoline-2,4-dione]",0.016,,> 30,,< 3.7,109,,
"CCCCCNc1cc(/C=C/C(=O)NCCc2ccc(N)cc2)ccc1OC [Example 1-35, N-[2-(4-aminophenyl)ethy]-3-(4methoxy-3-pentylaminophenyl)-acrylamide]",0.12,0.063,16,,10,160,,
"CCCCCOc1c(OC)ccc2c1CN(CCc1ccc(O)cc1)C2=O [Example 7-5, 2-[2-(4-hydroxyphenyl)ethyl]-5-methoxy-4-pentyloxy-2,3-dihydroisoindol-1-one]",0.014,0.038,> 227,,,> 2500,,
CCCCCOc1c(OC)ccc(C2=NC(C)(C)CO2)c1CO [Example 6-4],0.25,10,59,,11,650,,
"CCCCCOc1ccc2c(c1OCCCCC)CN(CCc1ccc([N+](=O)[O-])cc1)C2=O [Example 7-30, 4,5-dipentyloxy-2-[2-(4-nitrophenyl)ethyl]-2,3-dihydroisoindol-1-one]",< 0.01,0.021,1440,,1.8,2600,,
CCCCOc1cc(C(=O)NCCc2ccc(O)cc2)ccc1OC [Example 2-7],2.28,2.35,263,,9.5,> 2500,,
"CCCCCOc1c(OC)ccc2c1CCN(CCc1ccc(N)cc1)C2=O [Example 7-38, hydrochloride]",0.11,0.011,22,,,220,,9.9
CCCCCOc1ccc(C(=O)NCCc2ccc(O)cc2)cc1OCCCCC [Example 2-3],0.17,0.053,> 8250,,,> 3300,,
"CCCCCOc1cc(OC)ccc1/C=C/C(=O)N1CCOCC1 [Example 8-2, (E)-[3-(4-methoxy-2-pentyloxyphenyl)-1-oxo-2-propenyl]-4-morpholine]",0.5,> 10,67,,8.4,560,,
